Molecular target: T1, recombinant human secreted phospholipase A2 (Homo sapiens, UniProt P14555)
T1 sequence (P14555 21-144): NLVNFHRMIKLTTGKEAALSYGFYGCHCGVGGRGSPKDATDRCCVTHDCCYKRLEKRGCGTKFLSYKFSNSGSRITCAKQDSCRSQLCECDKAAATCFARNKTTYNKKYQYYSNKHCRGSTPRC
Assay: Chromogenic assay for inhibitors of recombinant human secreted phospholipase A2 (Assay Example 1)
Type: biochemical
Conditions: diheptanoyl thio-PC substrate, pH 7.5, absorbance at 405 nm, triplicate
From the text: The following chromogenic assay procedure was used to identify and evaluate inhibitors of recombinant human secreted phospholipase A2. The assay described herein has been adapted for high volume screening using 96 well microtiter plates. A general description of this assay method is found in the article, “Analysis of Human Synovial Fluid Phospholipase A2 on Short Chain Phosphatidylcholine-Mixed Micelles: Development of a Spectrophotometric Assay Suitable for a Microtiterplate Reader”, by Laure J. Reynolds, Lori L. Hughes, and Edward A Dennis, Analytical Biochemistry, 204, pp. 190-197, 1992 (the disclosure of which is incorporated herein by reference):
REACTION BUFFER— • CaCl2·2H2O (1.47 g/L) • KCl (7.455 g/L) • Bovine Serum Albumin (fatty acid free) (1 g/L)(Sigma A-7030, product of Sigma Chemical Co., St. Louis Mo., USA) • TRIS HCl (3.94 g/L) • TRIS=(tris(hydroxymethyl)aminomethane) pH 7.5 (adjust with NaOH)
ENZYME BUFFER— • 0.05 NaOAc·3H2O, pH 4.5 • 0.2 NaCl • Adjust pH to 4.5 with acetic acid
DTNB— • 5,5′-dithiobis-2-nitrobenzoic acid
RACEMIC DIHEPTANOYL THIO—PC • racemic 1,2-bis(heptanoylthio)-1,2-dideoxy-sn-glycero-3-phosphorylcholine • TRITON X-100 prepare at 6.249 mg/ml in reaction buffer to equal […] • TRITON X-100 is a polyoxy ethylene non-ionic detergent supplied by Pierce Chemical Company, 3747 N. Meridian Road, Rockford, Ill. 61101.
REACTION MIXTURE— • A measured volume of racemic dipheptanoyl thio PC supplied in chloroform at a concentration of 100 mg/ml is taken to dryness and redissolved in 10 millimolar TRITON X-100 nonionic detergent aqueous solution. Reaction Buffer is added to the solution, then DTNB to give the Reaction Mixture.
The reaction mixture thus obtained contains 1 mM diheptanoly thio-PC substrate, 0.29 mm TRITON X-100 detergent, and 0.12 mm DTMB in a buffered aqueous solution at pH 7.5.
• 1. Add 0.2 ml reaction mixture to all wells; • 2. Add 10 ul test compound (or solvent blank) to appropriate wells, mix 20 seconds; • 3. Add 50 nanograms of sPLA2 (10 microliters) to appropriate wells; • 4. Incubate plate at 40° C. for 30 minutes; • 5. Read absorbance of wells at 405 nanometers with an automatic plate reader.
All compounds were tested in triplicate. Typically, compounds were tested at a final concentration of 5 ug/ml. […] Lack of color development at 405 nanometers evidenced inhibition. Compounds initially found to be active were reassayed to confirm their activity and, if sufficiently active, IC50 values were determined. […] In all cases, % inhibition measured at 405 nanometers generated by enzyme reactions containing inhibitors relative to the uninhibited control reactions was determined. Each sample was titrated in triplicate and result values were averaged for plotting and calculation of IC50 values. IC50 were determined by plotting log concentration versus inhibition values in the range from 10-90% inhibition.

| Compound | IC50 |
| --- | --- |
| CONC(=O)COc1cccc2c1c1c(C(N)=O)cccc1n2Cc1ccccc1 [Example 2, [[5-Carbamoyl-9-(phenylmethyl)carbazol-4-yl]oxy]-N-(methoxy)acetamide] | 18.7 nM |
| CCONC(=O)COc1cccc2c1c1c(C(N)=O)cccc1n2Cc1ccccc1 [Example 3, [[5-Carbamoyl-9-(phenylmethyl)carbazol-4-yl]oxy]-N-(ethoxy)acetamide] | 19.3 nM |
| CON(C)C(=O)COc1cccc2c1c1c(C(N)=O)cccc1n2Cc1ccccc1 [Example 5, [[5-Carbamoyl-9-(phenylmethyl)carbazol-4-yl]oxy]-N-(methoxy)-N-(methyl)acetamide] | 42.5 nM |
| NC(=O)c1cccc2c1c1c(OCC(=O)NOCc3ccccc3)cc(-c3cccs3)cc1n2Cc1ccccc1 [Example 7, [[5-Carbamoyl-9-(phenylmethyl)-2-(thien-2-yl)carbazol-4-yl]oxy]-N-[(phenylmethyl)oxy]acetamide] | 29 nM |

The remaining lines, values ahead:

| IC50 | Compound |
| --- | --- |
| 18.3 nM | NC(=O)c1cccc2c1c1c(OCC(=O)NO)cccc1n2Cc1ccccc1 [Example 1, [[5-Carbamoyl-9-(phenylmethyl)carbazol-4-yl]oxy]-N-(hydroxy)acetamide] |
| 17 nM | NC(=O)c1cccc2c1c1c(OCC(=O)NOCc3ccccc3)cccc1n2Cc1ccccc1 [Example 4, [[5-Carbamoyl-9-(phenylmethyl)carbazol-4-yl]oxy]-N-[(phenylmethyl)oxy]acetamide] |

Source: US6933313B2, “Substituted carbazoles as inhibitors of sPLA2” (Eli Lilly and Company, priority 2001, dated 2005)
